# Patent US6806077B1 (priority 1997, dated 2004)
# Read-outs that look alike come from different tables or passages of the source.
# What was measured:
# [1] = tested on: PrPres; assay type: in vivo; conditions: C57BL/6 mice inoculated i.p. with strain C506M3; AmB 1 mg/kg from tA+15 days; sacrificed at tA+21 or tA+28; Western blot, versus untreated animals
# [2] = tested on: PrPres; parameters: species or system C57BL/6 mice; conditions: mouse, in vivo, ip, 25 mg/kg
Molecule,inhibition of the accumulation of PrPres in the spleen [1],inhibition of the accumulation of PrPres in the spleen [2]
"C[C@@H]1[C@H](O)[C@@H](C)/C=C/C=C/C=C/C=C/C=C/C=C/C=C/[C@H](O[C@@H]2O[C@H](C)[C@@H](O)[C@H](N)[C@@H]2O)C[C@@H]2O[C@](O)(C[C@@H](O)C[C@@H](O)[C@H](O)CC[C@@H](O)C[C@@H](O)CC(=O)O[C@H]1C)C[C@H](O)[C@H]2C(=O)O [AmB, amphotericin B]",significant inhibition of the accumulation of PrPres,–
dextran sulphate [DS500],–,significant inhibition of the accumulation of PrPres
